Measurements: patent US20080269121A1, “Methods and Compositions Involving A1c Subunit of L-Type Calcium Channels in Smooth Muscle Cells” (The Board of Regents of the University of Texas System, priority 2005, published 2008)
“Also recorded” adds a separate entry of the source. Like-named read-outs stand apart in the source and are kept apart here.

Columns and labels:
[1] = tested on: α1C subunit of L-type Ca^2+ channels; test: Q-PCR of α1C mRNA expression in HCCSMC; format: cell-based, human; details: for induction of α1C mRNA expression: HCCSMC
Source text: (§1) Primary cultures of HCCSMC: Human tissue was obtained from the descending and sigmoid colons with approval of the University of Texas Medical Branch Institutional Review Board from disease free margins of resected segments from patients undergoing surgery for colon cancer. The circular muscle layer was separated from the taenia coli and lamina propria with a tissue slicer. The circular muscle layer was collected in ice-cold HEPES buffer (in mM: 120 NaCl, 2.6 KH2S04, 4 KCl, 2 CaCl2, 0.6 MgCl2, 25 HEPES, 14 glucose and 2.1% essential amino acid mixture, pH 7.4). Two successive digestions with papain and collagenase, as described previously by Shi and Sarna, were used to disperse smooth muscle cells. The cells were cultured in RPMI 1640 (Gibco/Invitrogen, Carlsbad, Calif.) supplemented with 10% fetal bovine serum in the presence of 100 units/mL of penicillin G, 100 μg/mL of streptomycin sulfate and 0.25 μg/mL of amphoteracin B. The culture medium was changed every three days. Cells in passages 3 to 5 were used in all experiments. All cells were cultured in serum-free medium for at least 15 h prior to experiments to eliminate the possible effects of growth factors. […] The cultures of colonic smooth muscle cells retain their contractile phenotype. Each experiment used cells or muscle strips from at least three different subjects.
Total RNA was extracted from cells using the Qiagen RNeasy kit (Qiagen, Valencia, Calif.) by following the manufacturer's protocol. The cDNAs were made using the Superscript First-Strand Synthesis System (Invitrogen, Carlsbad, Calif.).
Quantitive real-time-polymerase chain reaction (Q-PCR). Q-PCR assay is employed to determine gene expression using TaqMan technology on Applied Biosystems 7000 sequence detection system (UTMB Real-time PCR Core Facility). Applied Biosystems Assays-By-Design containing a 20× assay mix of primers and TaqMan MGB probes (FAMTM dye-labeled) are used for a target gene and the endogenous control, human 18s RNA. These assays were designed using primers that span exon-exon junctions so as not to detect genomic DNA. All primer and probe sequences were searched against the Celera data base to confirm specificity. The primer and probe sequences used were as follows: human Cav1.2 channel oα1C intermediate form (Cav1.2b) probe spanning exon 1b and exon 2, […] (SEQ ID NO:4): forward primer, […] (SEQ ID NO:5): reverse primer, […] (SEQ ID NO:6). Human Cav1.2 channel α1C long form (Cav1.2a) probe spanning exon 1a and exon 2: […] (SEQ ID NO:7): forward primer, […] (SEQ ID NO:8): reverse primer. […] (SEQ ID NO:6).

[2] = tested on: α1C1b promoter; test: α1C1b promoter luciferase reporter activity in HCCSMC; format: cell-based, human; details: for α1C1b promoter reporter (luciferase) activity: substance by itself; for effect on enhancement of α1C1b promoter activity by VIP: with VIP
Method: Transient cell transfections and luciferase activity. FuGENE 6 (Roche, Mannheim, Germany) is used to transfect luciferase-expressing pGL2 constructs in HCCSMC. The cells in passage 4 are seeded into 12-well plates (Costar, Acton, Mass.) and grown to 70% to 80% confluency. Transfections are carried out by incubation of cells in each well with 1.5 μl of FuGENE 6, 0.5 μg of pGL2 construct, and 0.125 μg of pSEAP2 Control Vector (BD Biosciences Clontech, Palo Alto, Calif.) for 24 h as per manufacturer's instructions. The pSEAP2 Control Vector is co-transfected for normalization of data. The transfected cells were treated with stimulus or medium control and harvested after 24 hours. Twenty μl of the supernatant of the cell lysates are taken for the measurement of luciferase activity by a luminometer (Promega, Madison, Wis.). The SEAP activity is measured with a Clontech SEAP detection kit by following the manufacturer's instructions.
Promoter constructs, 5′-deletions, and site-directed mutagenesis. The promoter constructs of hα1c1b are prepared by PCR amplification of human genomic DNA (Roche, Indianapolis, Ind.) and digested partially with Hind III (Promega, Madison, Wis.) using the FailSafe PCR kit (Epicentre, Madison, Wis.). The PCR product is subcloned into pDrive Cloning Vector with the PCR Cloning^plus kit (Qiagen, Valencia, Calif.) and SURE 2 supercompetent cells (Stratagene, La Jolla, Calif.) and subsequently transferred to the luciferase expression plasmid pGL2-Basic Vector (Promega, Madison, Wis.). The deletion constructs are made using the full length promoter construct as a template in PCR reactions. The same methods and kits are used to subclone the sequenced PCR products into the pDrive and pGL2 vector. The site-directed mutagenesis is carried out using QuikChange® II XL Site-Directed Mutagenesis Kit from Stratagene (La Jolla, Calif.), as per manufacturer's instructions.

[3] = tested on: Cav1.2a; details: neonatal rat ventricular myocytes; cited from earlier work
[4] = tested on: rat middle colon muscle strips; test: Osmotic pump administration in rats, contractile response of colon muscle strips; format: in vivo; details: systemic administration by osmotic pump for 3 days
Method: (§2) Muscle bath experiments. Pure circular muscle strips (2 mm×10 mm) are prepared from resected human colon segments. The strips are mounted in 5 ml baths filled with carbonated Krebs solution (in mM: 118 NaCl, 4.7 KCl, 2.5 CaCl2, 1 NaH2PO4, 1-2 MgCl2, 11 D-glucose, and 25 NaHCO3) at 37° C. (Siebenlist et al., 1994; Barnes and Karin, 1997). The muscle strips are equilibrated for 1 h at 1 g tension and then stretched until maximal response is obtained to 10^−4 m ACh. The bathing solution is replaced every 15 min. Contractions are measured by force transducers and analyzed by DATAQ (Akron, Ohio) software.
(§3) Vertebrate Animals. Sprague-Dawley rats were used. For tissue harvesting, the rats were anesthetized with 5% isoflurame in 100% oxygen for 5 to 7 minutes followed by i.p. injection of 50 mg/kg ketamine.
(§4) Osmotic pumps were implanted under anesthesia as discussed above. Lateral surface of left back were shaven and cleaned with betadine. A 2 cm incision was made in the skin and subcutaneous facia and muscle separated. The micro-osmotic pump were implanted intramuscularly and the incision was closed.

[5] = tested on: TNBS-induced inflammation; format: in vivo, rat; details: for suppression of contractile response, with sub-threshold dose of TNBS: osmotic pump plus TNBS 30 mg/kg, compared with TNBS 130 mg/kg
Method: as §2, §3, §4
Colonic inflammation was induced by intraluminal injection of 30 mg/kg or 130-mg/kg trinitrobenzene sulfonic acid (TNBS) under anesthesia, as described above.

[6] = tested on: human colonic circular muscle strips; test: Muscle bath: contractile response of human colonic circular muscle strips; format: cell-based
Method: as §2
The protocol for transfection of sense and antisense oligonucleotides in freshly obtained muscle strips was similar to that in HCCSMC. The circular muscle layer was isolated from the fall thickness human colon, and sliced into 2 mm×10 mm muscle strips. The strips were incubated in RPMI 1640 without serum. The sense and antisense oligonucleotides (10 μM) were added into the medium for 24 h before incubation with 20 ng/mL TNFα for 24 h.

[7] = tested on: CRE1 and CRE2; test: Oligonucleotide agarose conjugate pull-down of CREB; format: cell-based, human; details: with VIP, FIG. 10
[8] = tested on: p65 subunit; test: Nuclear abundance and binding of NF-κB p65 in HCCSMC; format: cell-based, human
Method: Cytoplasmic and nuclear protein, and RNA extraction: Cytoplasmic and nuclear proteins were prepared as described earlier by Shi et al. Briefly, the cells were washed twice with phosphate-buffered saline solution and then with buffer A (in mM: 10 HEPES, 1.5 MgCl2, 10 KCl, 0.5 dithiothreitol, 0.5 phenylmethylsulfrenyl fluoride [PMSF]; 10 ng/mL leupeptin, and 10 ng/mL aprotinin). The cells were resuspended in 25 μL of buffer A containing 0.25% NP-40 and incubated at 4° C. for 10 minutes. After centrifugation at 12,000 g for 10 minutes, the supernatant was collected as cytoplasmic extract. The nuclear pellet was resuspended in 20 μL of buffer C (in mM: 20 HEPES, […], 1.5 MgCl2, 0.2 ethylenediaimetetraacetic acid (EDTA), 0.5 DTT, 0.5 PMSF; 24% glycerol, 10 ng/mL leupeptin, and 10 ng/mL aprotinin) and incubated on ice with frequent vortexing for 15 minutes. The samples were centrifuged at 14,000 g for 10 minutes, and the supernatant (nuclear extract) was transferred to a fresh tube with 5 volumes of buffer D (in mM: 20 HEPES, 0.2 EDTA, 50 KCl, 0.5 DTT, 0.5 PMSF; 20% glycerol, 10 ng/mL leupeptin, and 10 ng/mL aprotinin). The protein concentration was determined by using the Bio-Rad assay kit (Bio-Rad Laboratories, Hercules, Calif.).
Electrophoretic mobility shift assay. […]

[9] = tested on: α1C subunit of L-type Ca^2+ channels; test: α1C protein expression (Western immunoblotting); format: cell-based, human; details: muscle strip tissue, FIG. 14 top
Source text: as §1
Western immunoblotting. Each lane is loaded with 10 μg protein and size-separated on a 10% SDS polyacrylamide gel. After blotting, the nitrocellulose membranes are blocked with 10% non-fat dried milk at 4° C. overnight. The blots are incubated with appropriate dilution of the antibody at 4° C. overnight and appropriate dilution of designated secondary antibody at room temperature for 1 h. β-actin is used as internal control.

With `O=S(=O)(NCCNC/C=C/c1ccc(Br)cc1)c1cccc2cnccc12` [H-89] as the compound, how does the “effect on α1C mRNA on its own” value ([1]; FIG. 4) read?
Its value is “no effect on its own”.

What about the “effect on VIP enhancement of α1C mRNA” value ([1]; FIG. 4, with VIP) of the same compound?
Its value is “partially inhibited the effect of VIP”.

Which “α1C1b promoter reporter (luciferase) activity” value [2] does the source give for `COc1cccc(-c2cc(=O)c3ccccc3o2)c1N` [PD98059] here?
The value was “little effect”.

What about the “effect on enhancement of α1C1b promoter activity by VIP” value [2] of the same compound?
Its value is “little effect”.

With `Oc1ccc(-c2nc(-c3ccncc3)c(-c3ccc(F)cc3)[nH]2)cc1` [SB202190] as the compound, how does the “α1C1b promoter reporter (luciferase) activity” value [2] read?
Its value is “little effect”.

And the “effect on enhancement of α1C1b promoter activity by VIP” value [2]?
The value was “somewhat blunt the enhancement”.

What does the source list for `CC(C)NCC(O)c1ccc(O)c(O)c1` (centres unmarked) [isoproterenol]?
Cav1.2a mRNA [3]: transient increase in Cav1.2a mRNA; increase in peak current density [3]: about 40%

For `NC[C@H](O)c1ccc(O)c(O)c1` [norepinephrine], which “induction of α1C mRNA expression” value [1] is on record?
Its value is “induced the expression of α1C mRNA”.

Which results are given for (p-chloro-D-Phe^6, Leu^17)-VIP?
contractile response of rat colon muscle strips to ACh [4]: suppressed the contractile response; suppression of contractile response, with sub-threshold dose of TNBS ([5]; listed as VIP receptor antagonist): increased the suppression of contractile response; suppression of contractile response, with sub-threshold dose of TNBS ([5]; listed as VIP/PACAP receptor antagonist): enhanced the suppression of contractility; contractile response to ACh, antagonist by itself ([5]; osmotic pump, no TNBS, FIG. 15): suppressed the contractile response; diarrhea ([5]; rat, in vivo): did not develop diarrhea

What does the source list for TNFα?
contractile response of circular muscle strips to ACh ([6]; strips incubated 24 h, organ bath): suppresses their contractile response to ACh; also recorded: suppressed the contractile response to ACh; also recorded: suppression of contractility; α1C1b promoter reporter (luciferase) activity [2]: reduced luciferase activity; also recorded: suppressed it; effect on CREB binding after VIP treatment [7]: abrogated; also recorded: reduces the binding after VIP treatment; nuclear abundance and binding of p65 [8]: enhanced the nuclear abundance and binding of p65

Which results are given for “pituitary adenylate cyclase-activating peptide [PACAP]”?
induction of α1C mRNA expression [1]: induced expression; effect on TNFα suppression of α1C protein [9]: minimized; effect on TNFα suppression of contractile response to ACh ([6]; muscle strips, treatment before/with TNFα): significantly reduces the suppression; effect on suppression of α1C1b promoter activity by TNFα ([2]; with TNFα): significantly blocked this reduction; effect on suppression of contractility due to TNBS-induced inflammation ([5]; intact rat model, treatment through osmotic pumps, expected): partially inhibit the suppression of contractility
